Assay results as given in ChEMBL document CHEMBL1201862, “PubChem BioAssay data set” (2004).
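Dose response: 5 concentrations. Exposure: 48 h. Format: 96-well plates. Endpoint: linear interpolation; highest concentration if not reached. The concentration for 50% growth inhibition is given as GI50.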 Activity calls are given as the source filed them. Cut-off read from the data, not from the text of the source: active = GI50 up to about 1.1 µM and inactive = higher.

Experiments:
Assay in all cases: NCI-60 cell line screen, 48 h
OVCAR-5 = tested on: OVCAR-5
MOLT-4 = tested on: MOLT-4
NCI-H460 = tested on: NCI-H460
SR = tested on: SR
HL-60 = tested on: HL-60
SF-268 = tested on: SF-268
K562 = tested on: K562
DMS-114 = tested on: DMS-114
A498 = tested on: A498
SK-MEL-2 = tested on: SK-MEL-2
SN12C = tested on: SN12C
KM12 = tested on: KM12
HOP-92 = tested on: HOP-92
SNB-19 = tested on: SNB-19
OVCAR-8 = tested on: OVCAR-8
OVCAR-3 = tested on: OVCAR-3
SK-OV-3 = tested on: SK-OV-3

Measured: GI50

CCCCCCCSCC1OC(n2cnc3c(N)ncnc32)C(O)C1O (stereo not drawn)
inactive: OVCAR-5 > 100 µM | MOLT-4 19.1 µM | NCI-H460 16.5 µM | SR 10 µM | HL-60 3.01 µM | SF-268 34.2 µM | K562 22.8 µM | DMS-114 18 µM | A498 14.2 µM | SK-MEL-2 20.3 µM | SN12C 21.8 µM | KM12 8.22 µM | HOP-92 6.43 µM | SNB-19 30.5 µM | OVCAR-8 14.4 µM

CC(=O)C(CN(C)C)C(c1ccccc1)c1c(O)c2ccccc2oc1=O (stereo not drawn)
inactive: OVCAR-5 > 100 µM | MOLT-4 > 100 µM | OVCAR-3 > 100 µM | NCI-H460 > 100 µM | SR > 100 µM | SK-OV-3 > 100 µM | HL-60 > 100 µM | SF-268 > 100 µM | K562 > 100 µM | DMS-114 93.3 µM | SK-MEL-2 > 100 µM | SN12C > 100 µM | KM12 > 100 µM | HOP-92 49.9 µM | SNB-19 > 100 µM | OVCAR-8 > 100 µM

O=C(CC(=O)c1ccccc1)CC(O)(c1ccccc1)c1ccccc1
inactive: OVCAR-5 11.3 µM | MOLT-4 1.88 µM | OVCAR-3 4.84 µM | NCI-H460 2.33 µM | SR 2.88 µM | SK-OV-3 9.31 µM | HL-60 2.01 µM | SF-268 6.9 µM | K562 2.47 µM | DMS-114 2.06 µM | A498 12.1 µM | SK-MEL-2 9.95 µM | SN12C 4.99 µM | KM12 7.76 µM | HOP-92 5.21 µM | SNB-19 3.92 µM | OVCAR-8 5.26 µM

C/C(=N\NC(=S)Nc1ccc([N+](=O)[O-])cc1S(=O)(=O)O)c1ccccn1
inactive: OVCAR-5 39.9 µM | MOLT-4 40.1 µM | OVCAR-3 26.6 µM | NCI-H460 25.7 µM | SR 32.6 µM | HL-60 31.7 µM | SF-268 95.3 µM | K562 41.1 µM | DMS-114 39.7 µM | A498 36.7 µM | SK-MEL-2 29.4 µM | SN12C 59 µM | KM12 51.8 µM | HOP-92 41.9 µM | OVCAR-8 34.3 µM

CN(C)CC1(Cc2ccccc2)CC/C(=C\c2ccccc2)C1=O (stereo not drawn)
inactive: OVCAR-5 40.6 µM | MOLT-4 24 µM | OVCAR-3 31.4 µM | NCI-H460 28.2 µM | SR 34 µM | HL-60 20.4 µM | SF-268 61 µM | K562 29.4 µM | DMS-114 31.3 µM | A498 33.1 µM | SK-MEL-2 50.9 µM | SN12C 69.2 µM | KM12 40.3 µM | HOP-92 51.4 µM | SNB-19 22.2 µM | OVCAR-8 34.5 µM

CC(C)Cc1ccc(C(C)C(=O)N2CCN(/C=C/c3ccccc3)CC2)cc1 (stereo not drawn)
inactive: OVCAR-5 13.9 µM | MOLT-4 6.15 µM | OVCAR-3 12.9 µM | NCI-H460 16.1 µM | SK-OV-3 16.6 µM | HL-60 3.94 µM | SF-268 16.3 µM | K562 5.58 µM | DMS-114 10.8 µM | A498 16.4 µM | SK-MEL-2 13.6 µM | SN12C 15.8 µM | KM12 15.5 µM | HOP-92 13.1 µM | SNB-19 2.79 µM | OVCAR-8 14.5 µM

c1ccc(N2CCN(CCN3CCc4c([nH]c5ccccc45)C3c3cccnc3)CC2)cc1 (stereo not drawn)
inactive: OVCAR-5 > 100 µM | MOLT-4 > 100 µM | OVCAR-3 > 100 µM | NCI-H460 > 100 µM | SR > 100 µM | SK-OV-3 24 µM | HL-60 > 100 µM | SF-268 > 100 µM | K562 7.14 µM | DMS-114 > 100 µM | A498 > 100 µM | SN12C > 100 µM | KM12 > 100 µM | HOP-92 14.4 µM | SNB-19 > 100 µM | OVCAR-8 88.1 µM

CC(C)Cc1cccc(C(C)C)c1NC(=O)CCC(=O)N/N=C1\C(=N/NC(=O)CCC(=O)Nc2c(C(C)C)cccc2C(C)C)C(c2ccc3c(c2)OCO3)Oc2ccccc21 (stereo not drawn)
inactive: OVCAR-5 > 100 µM | MOLT-4 57.3 µM | NCI-H460 27.9 µM | SR 55.7 µM | SK-OV-3 > 100 µM | HL-60 34.2 µM | SF-268 67.8 µM | K562 25 µM | DMS-114 42.6 µM | A498 > 100 µM | SK-MEL-2 > 100 µM | SN12C 43.2 µM | KM12 > 100 µM | HOP-92 > 100 µM | SNB-19 91 µM | OVCAR-8 69.3 µM

O=C(Cc1ccccc1)NN1C(=O)C(Cl)C1c1ccc(Cl)cc1 (stereo not drawn)
inactive: OVCAR-5 > 100 µM | MOLT-4 30.6 µM | OVCAR-3 > 100 µM | NCI-H460 > 100 µM | SR 24.1 µM | SK-OV-3 > 100 µM | HL-60 92.7 µM | SF-268 > 100 µM | K562 72.9 µM | DMS-114 > 100 µM | SK-MEL-2 > 100 µM | SN12C > 100 µM | KM12 > 100 µM | SNB-19 69.8 µM | OVCAR-8 > 100 µM

CP(=O)(CCSc1ccccc1)c1ccccc1 (stereo not drawn)
inactive: MOLT-4 > 100 µM | OVCAR-3 > 100 µM | NCI-H460 > 100 µM | SR > 100 µM | SK-OV-3 > 100 µM | HL-60 35.6 µM | SF-268 > 100 µM | K562 > 100 µM | DMS-114 > 100 µM | A498 > 100 µM | SN12C > 100 µM | HOP-92 > 100 µM | SNB-19 > 100 µM | OVCAR-8 > 100 µM

O=c1cc[nH]c2c1ccc1ncccc12
inactive: OVCAR-5 > 100 µM | MOLT-4 > 100 µM | OVCAR-3 > 100 µM | NCI-H460 > 100 µM | SR > 100 µM | SK-OV-3 > 100 µM | HL-60 > 100 µM | SF-268 > 100 µM | K562 > 100 µM | DMS-114 > 100 µM | A498 > 100 µM | SK-MEL-2 > 100 µM | SN12C > 100 µM | KM12 > 100 µM | SNB-19 > 100 µM | OVCAR-8 > 100 µM

CN1C/C(=C\c2ccc(C(=O)O)cc2)C(=O)/C(=C/c2ccc(C(=O)O)cc2)C1
inactive: OVCAR-5 > 100 µM | MOLT-4 > 100 µM | OVCAR-3 > 100 µM | NCI-H460 > 100 µM | SR > 100 µM | SK-OV-3 > 100 µM | HL-60 > 100 µM | SF-268 > 100 µM | K562 > 100 µM | DMS-114 > 100 µM | A498 > 100 µM | SK-MEL-2 > 100 µM | SN12C > 100 µM | KM12 > 100 µM | HOP-92 > 100 µM | OVCAR-8 > 100 µM
